Cellular reversion and IC50 data for 29 compounds are collected here from ChEMBL document CHEMBL1143508, “Design, synthesis, and structure-activity relationships of tetrahydroquinoline-based farnesyltransferase inhibitors” (Bioorg Med Chem Lett, 2005).

Assay [1] addresses T1, Protein farnesyltransferase (Rattus norvegicus) (UniProt Q04631+Q02293). The assay is described as follows: Percentage cellular reversion of H-ras transformed Rat-1 cells at 100 nM. The format is functional, cell-based.
The target in assay [2] is Protein farnesyltransferase (Homo sapiens, UniProt P49354+P49356). The assay is described as follows: Inhibition of human farnesyltransferase. Type of assay: protein-complex assay.
Assay [3] concerns the target Protein farnesyltransferase (Rattus norvegicus, UniProt Q02293+Q04631). In words: Inhibition of cellular reversion in H-ras transformed Rat-1 cells. The format is functional, cell-based.
Assay [4] deals with T1, Protein farnesyltransferase (Rattus norvegicus). In words: Percentage cellular reversion in H-ras transformed Rat-1 cells at 1 uM. The format is functional, cell-based.
For assay [5] the target is unchanged. In words: Percentage cellular reversion in H-ras transformed Rat-1 cells at 10 uM. Type of assay: functional, cell-based.

The term IC50 denotes the point on the concentration scale where inhibition reaches its midpoint. `C=C(C)CN(C1Cc2cc(C#N)ccc2N(Cc2cncn2C)C1)S(=O)(=O)c1cccnc1` (stereo not given) gave a Cellular reversion in assay [1] of 70%. Moreover, the IC50 was found to be 1.2 nM in assay [2] and 100 nM in assay [3].
`C=C(C)CN(C1Cc2cc(C#N)ccc2N(Cc2cncn2C)C1)S(C)(=O)=O` (stereo not given) gave a Cellular reversion in assay [1] of 90%. In addition, the half-inhibitory concentration (IC50) in assay [2] was 0.8 nM; in assay [3], 8 nM.
Consider `Cn1cncc1CN1CC(N(CC(=O)OC(C)(C)C)S(=O)(=O)c2cccnc2)Cc2cc(C#N)ccc21` (stereo not given), for which the Cellular reversion in assay [1] stood at 30%. The IC50 in assay [2] was determined as 3.9 nM; in assay [3], 225 nM.
With `C=C(C)CN(C1Cc2cc(C#N)ccc2N(Cc2cncn2C)C1)S(=O)(=O)c1ccccc1` (stereo not given), the Cellular reversion in assay [1] was determined as 95%. In assay [2], this compound had an IC50 of 0.9 nM.
Compound `Cn1cncc1CN1C[C@@H](N(Cc2ccsc2)S(=O)(=O)c2ccccc2)Cc2cc(C#N)ccc21` gave a Cellular reversion in assay [1] of 85%. In assay [2], this compound came in with an IC50 of 1.1 nM.
For the compound `Cn1cncc1CN1CC(N(CC2CCCCC2)S(=O)(=O)c2ccccc2)Cc2cc(C#N)ccc21` (stereo not given), the Cellular reversion in assay [4] was found to be 90%; in assay [1], 0%. Besides, in assay [2], the half-maximal inhibitory concentration (IC50) worked out at 48 nM.
Compound `Cn1cncc1CN1CC(N(CC(=O)OC(C)(C)C)S(=O)(=O)c2ccccc2)Cc2cc(C#N)ccc21` (stereo not given) came in with a Cellular reversion in assay [1] of 75%. Further, half-maximal inhibition in assay [2] (IC50) was put at 4 nM.
As for `Cn1cncc1CN1CC(N(Cc2ccccc2)S(C)(=O)=O)Cc2cc(C#N)ccc21` (stereo not given), the Cellular reversion amounted to 85% in assay [4] and 0% in assay [1]. Moreover, the IC50 in assay [2] turned out to be 2.8 nM.
On to `Cn1cnc(S(=O)(=O)N(CC(=O)OC(C)(C)C)C2Cc3cc(C#N)ccc3N(Cc3cncn3C)C2)c1` (stereo not given), for which the Cellular reversion in assay [1] was 90%. Besides, the IC50 in assay [2] turned out to be 0.6 nM; in assay [3], 30 nM.
As to `Cn1cc(S(=O)(=O)N(Cc2ccccc2)C2Cc3cc(C#N)ccc3N(Cc3cncn3C)C2)cn1` (stereo not given), in assay [1], the Cellular reversion was 75%. In assay [2], this compound showed a 50% inhibitory concentration (IC50) of 4.6 nM.
Take `C=C(C)CN(C1Cc2cc(C#N)ccc2N(Cc2cncn2C)C1)S(=O)(=O)c1ccccn1` (stereo not given): in assay [1], the Cellular reversion turned out to be 85%. The IC50 in assay [2] came to 0.9 nM; in assay [3] it was 60 nM.
With `Cn1cnc(S(=O)(=O)N(Cc2ccccc2)C2Cc3cc(C#N)ccc3N(Cc3cncn3C)C2)c1` (stereo not given), in assay [1], the Cellular reversion stood at 75%. For the same compound, the IC50 in assay [2] was determined as 1.1 nM.
With `Cn1cc(S(=O)(=O)N(Cc2ccsc2)C2Cc3cc(C#N)ccc3N(Cc3cncn3C)C2)cn1` (stereo not given), the Cellular reversion in assay [1] is 95%.
`Cn1cncc1CN1CC(NS(=O)(=O)c2ccccc2)Cc2cc(C#N)ccc21` (stereo not given): the values for the Cellular reversion in assay [5] and in assay [1] were 30% and 0%, respectively. Besides, the IC50 in assay [2] was determined as 10 nM.
With `Cn1cncc1CN1CC(N(CC(=O)OC(C)(C)C)S(=O)(=O)c2ccccn2)Cc2cc(C#N)ccc21` (stereo not given), in assay [1], the Cellular reversion is 85%. The compound further yielded an IC50 in assay [3] of 10 nM.
`Cn1cncc1CN1CC(N(Cc2ccsc2)S(=O)(=O)c2cccnc2)Cc2cc(C#N)ccc21` (stereo not given) showed a Cellular reversion in assay [1] of 85%. Further, the IC50 in assay [2] stood at 0.9 nM.
Take `Cn1cncc1CN1CC(N(Cc2ccccc2)S(=O)(=O)c2cccnc2)Cc2cc(C#N)ccc21` (stereo not given): in assay [1], the Cellular reversion was determined as 85%. Also, the values for the IC50 in assay [2] and in assay [3] were 0.9 nM and 70 nM, respectively.
In assay [1], `C=C(C)CN(C1Cc2cc(C#N)ccc2N(Cc2cncn2C)C1)S(=O)(=O)c1cn(C)cn1` (stereo not given) returned a Cellular reversion of 80%. Besides, the concentration for half-maximal inhibition (IC50) in assay [2] amounted to 0.3 nM; in assay [3], 50 nM.
Consider `CN(C1Cc2cc(C#N)ccc2N(Cc2cncn2C)C1)S(=O)(=O)c1cnn(C)c1` (stereo not given), for which the Cellular reversion worked out at 25% in assay [4] and 0% in assay [1]. The compound further came in with an IC50 in assay [2] of 7.6 nM.
In turn, `Cn1cnc(S(=O)(=O)N(Cc2ccsc2)C2Cc3cc(C#N)ccc3N(Cc3cncn3C)C2)c1` (stereo not given) returned a Cellular reversion in assay [1] of 65%.
In turn, `Cn1cncc1CN1C[C@H](N(Cc2ccsc2)S(=O)(=O)c2ccccc2)Cc2cc(C#N)ccc21` displayed a Cellular reversion in assay [1] of 80%. Also, in assay [2], the IC50 stood at 2.8 nM.
In assay [1], `CN(C1Cc2cc(C#N)ccc2N(Cc2cncn2C)C1)S(=O)(=O)c1ccccc1` (stereo not given) came in with a Cellular reversion of 45%. Besides, in assay [2], the IC50 was determined as 3.5 nM.
Regarding `CN(C1Cc2cc(C#N)ccc2N(Cc2cncn2C)C1)S(=O)(=O)c1ccccn1` (stereo not given), the values for the Cellular reversion in assay [4] and in assay [1] were 85% and 0%, respectively. In addition, it took 3.1 nM to reach half-maximal inhibition in assay [2] (IC50).
`Cn1cncc1CN1CC(N(Cc2ccsc2)S(=O)(=O)c2ccccn2)Cc2cc(C#N)ccc21` (stereo not given) displayed a Cellular reversion in assay [1] of 95%. For the same compound, in assay [3], the midpoint of inhibition, the IC50, lay at 13 nM.
For the compound `Cn1cncc1CN1CC(N(CCc2ccccc2)S(=O)(=O)c2ccccc2)Cc2cc(C#N)ccc21` (stereo not given), the Cellular reversion in assay [1] is 0%. The concentration for half-maximal inhibition (IC50) in assay [2] was above 5000 nM.
The compound `Cn1cncc1CN1CC(N(Cc2ccccc2)S(=O)(=O)c2ccccc2)Cc2cc(C#N)ccc21` (stereo not given) came in with a Cellular reversion in assay [1] of 85%. Besides, the IC50 in assay [2] is 3 nM.
As to `CN(C1Cc2cc(C#N)ccc2N(Cc2cncn2C)C1)S(=O)(=O)c1cccnc1` (stereo not given), the Cellular reversion was found to be 10% in assay [4] and 0% in assay [1]. The same compound yielded a concentration for half-maximal inhibition (IC50) in assay [2] of 17 nM.
`Cn1cncc1CN1CC(N(Cc2ccccc2)S(=O)(=O)c2ccccn2)Cc2cc(C#N)ccc21` (stereo not given): the Cellular reversion in assay [1] was 90%. Also, the 50% inhibitory concentration (IC50) is 2.6 nM in assay [2] and below 20 nM in assay [3].
As to `Cn1cncc1CN1CC(N(Cc2ccsc2)S(=O)(=O)c2ccccc2)Cc2cc(C#N)ccc21` (racemic), the Cellular reversion in assay [1] was 90%. Also, the midpoint of inhibition in assay [2], the IC50, lay at 2.5 nM.
